Tests used:
Type in all cases: cell-based, rat
p38 = assay: Western blot, phospho-p38 in hypoxic RGC-5; settings: agmatine 100 μM, BDNF 10 ng/mL
Description: (§1) The RGC-5 cell line, which is a RGC line developed from post-natal Sprague-Dawley rats, was grown in modified Dulbecco's Modified Eagle's Medium (DMEM; Gibco) supplemented with 10% of heat inactivated fetal bovine serum (Gibco) and 100 U/mL of penicillin and 100 μg/mL of streptomycin (Gibco). The cells were passaged every 2 to 3 days, and the cultures incubated at 37° C. in 5% of CO2 and air. […] For all experiments, cells were used at an 80% confluence. Cultures were transferred into a closed hypoxic chamber (Form a Scientific Co.) in which oxygen level (5% of O2, 5% of CO2, 90% of N2) and temperature (37° C.) were controlled. […] The protein concentrations in the resultant supernatants were measured with the Bradford reagent, and equal amounts of protein (40 μg) were boiled in Laemmli sample buffer, followed by being resolved by 10 or 15% SDS-PAGE. The proteins were transferred to polyvinylidene fluoride membranes (Immobilon; Millipore, Billerica, Mass.) and then probed overnight with antibodies against JNK, ERK p44/42, p38, NF-κB p65, phospho-JNK, phospho-ERK p44/42, phospho-p38, phospho-NF-κB, (3-actin and histone 3 as indicated (diluted 1:1000). The immunoreactive bands were detected with horseradish peroxidase-conjugated secondary antibodies and visualized by enhanced chemiluminescence.

JNK = assay: Western blot, phospho-JNK in hypoxic RGC-5; settings: agmatine 100 μM, BDNF 10 ng/mL
Description: as §1

NF-κB = assay: Western blot, NF-κB in nuclear and cytosolic fraction of hypoxic RGC-5; settings: for increase in phospho-NF-κB, nuclear fraction / increase in total NF-κB expression, cytoplasmic fraction: hypoxia 1 hour; for total NF-κB and histone 3, nuclear fraction: hypoxic RGC-5
Description: The RGC-5 cell line, which is a RGC line developed from post-natal Sprague-Dawley rats, was grown in modified Dulbecco's Modified Eagle's Medium (DMEM; Gibco) supplemented with 10% of heat inactivated fetal bovine serum (Gibco) and 100 U/mL of penicillin and 100 μg/mL of streptomycin (Gibco). The cells were passaged every 2 to 3 days, and the cultures incubated at 37° C. in 5% of CO2 and air. […] For all experiments, cells were used at an 80% confluence. Cultures were transferred into a closed hypoxic chamber (Form a Scientific Co.) in which oxygen level (5% of O2, 5% of CO2, 90% of N2) and temperature (37° C.) were controlled. After washing twice with deoxygenated serum-free DMEM, cells were maintained in the hypoxic chamber. Control cells were not exposed to hypoxia. Agmatine or BDNF were added to the culture medium at the start of injury as indicated. For fraction of cytosolic and nuclear proteins, cells were lysed with lysis buffer A (10 mM of HEPES (pH 7.4), 10 mM of KCl, 0.1 mM of EDTA, 0.1 mM of EGTA, 1 mM of DTT, 10 mM of Na3VO4, 50 mM of NaF, 1 mM of PMSF, 1 μg/mL of aprotinin, 1 μg/mL of leupeptin, 1 μg/mL of pepstatin) on ice for 15 minutes, and 10% of NP-40 was then added thereto. After vortexing for 10 seconds, lysates were centrifuged at 15,000 g at 4° C. for 1 minute. The supernatent was collected from the cytosolic fraction. The pellet was resuspended in lysis buffer C (20 mM of HEPES (pH 7.4), 400 mM of NaCl, 1 mM of EDTA, 1% of glycerol, 1 mM of DTT, 10 mM of Na3VO4, 50 mM of NaF, 1 mM of PMSF, 1 μg/mL of aprotinin, 1 μg/mL of leupeptin, 1 μg/mL of pepstatin) on ice for 30 minutes. Lysates were centrifuge at 15,000 g at 4° C. for 15 minutes. The supernatent was collected from the nuclear fraction. The protein concentrations in the resultant supernatants were measured with the Bradford reagent, and equal amounts of protein (40 μg) were boiled in Laemmli sample buffer, followed by being resolved by 10 or 15% SDS-PAGE. The proteins were transferred to polyvinylidene fluoride membranes (Immobilon; Millipore, Billerica, Mass.) and then probed overnight with antibodies against JNK, ERK p44/42, p38, NF-κB p65, phospho-JNK, phospho-ERK p44/42, phospho-p38, phospho-NF-κB, (3-actin and histone 3 as indicated (diluted 1:1000). The immunoreactive bands were detected with horseradish peroxidase-conjugated secondary antibodies and visualized by enhanced chemiluminescence.

RGC-5 [1] = assay: Annexin-V assay (flow cytometry), TNF-α-induced apoptosis; settings: 50 ng/mL of TNF-α
Description: (§2) The RGC-5 cell line, which is an RGC line developed from post-natal Sprague-Dawley rats, was grown in modified DMEM (Gibco) supplemented with 10% of heat inactivated fetal bovine serum (Gibco) and 100 U/mL of penicillin and 100 μg/mL of streptomycin (Gibco). The cells were passaged every 2 to 3 days and incubated at 37° C. in 5% of CO2 and air. At cultivation, the cells had the same morphology. For all experiments, cells were used at 80% of confluence.
(§3) After washing twice with PBS, cells were cultured in serum-free DMEM and treated with either 10 or 50 ng/mL of recombinant rat TNF-α (Chemicon) for up to 48 hours. The control cells were not exposed to TNF-α. 100 μM of agmatine was added to the culture medium at the start of injury as indicated.
The percentage of cells actively undergoing apoptosis was determined by flow cytometry using the Annexin V-FITC Apoptosis Detection Kit (BD Biosciences, Cat no. 556547) according to the manufacturer's instructions. Briefly, cells were harvested and resuspended in binding buffer (10^6 cells/mL). 10^5 cells were mixed with 5 μL of annexin V-FITC and 5 μL of PI. After incubating at room temperature for 15 minutes in the dark, analysis was performed by flow cytometry.

RGC-5 [2] = assay: Hoechst 33342 and PI staining after TNF-α
Description: as §2, §3
Apoptotic or necrotic cell death was characterized by double staining cells with Hoechst 33342 and PI. Cells were stained with 10 μg/mL of Hoechst 33342 and 10 μg/mL of PI at 37° C. for 30 minutes. After being washed twice with PBS, cells were imaged with a digital camera attached to a fluorescence microscope.

Row | Compound | expression of phospho-p38 (p38) | hypoxia-induced expression of phospho-JNKs (JNK) | increase in phospho-NF-κB, nuclear fraction (NF-κB) | increase in total NF-κB expression, cytoplasmic fraction (NF-κB) | total NF-κB and histone 3, nuclear fraction (NF-κB) | proportion of apoptotic cells (RGC-5 [1]; 12 hour exposure, agmatine 100 μM) | proportion of apoptotic cells (RGC-5 [1]; 24 hours of exposure, 100 μM of agmatine) | RGC loss (Hoechst-positive / PI-positive cells) (RGC-5 [2]; 50 ng/mL of TNF-α for 48 hours, 100 μM of agmatine) | effect on culture (Hoechst-positive / PI-labeled cells) (RGC-5 [2]; only 100 μM of agmatine, no TNF-α, 48 hours)
1 | BDNF: recombinant human BDNF (R&D System), well-known protective neurotrophin for RGCs, used as comparator | only blocked the expression of phospho-p38 at 6 hours | not | not | not | no significant changes |  |  |  | 
2 | N=C(N)NCCCCN [agmatine] | had no effect | significantly suppressed | suppressed | inhibited | no significant changes | no significant difference | significant decrease in apoptotic cells | RGC loss was prevented | did not have a significant effect
